What was measured:
CCRF-CEM cells = experiment: RNA-Seq differential gene expression; assay type: cell-based, human; details: for log2(fold change): Upregulated
Excerpt: Given our findings that the sensitivity to AVX420 was dependent on increased intracellular ROS, we hypothesized that activation of the integrated stress response (ISR) by oxidative damage may be the cause of cell death. The ISR converges on deactivation of the eukaryotic translation initiation factor 2 alpha (eIF2α) to globally suppress translation, with the exception of selected genes (e.g., activating transcription factor (ATF) 4) which activate robust transcriptional changes to restore homeostasis and promote survival or, when oxidative damage is sustained, to initiate programmed cell death. To investigate this, we used a combination of RNA-SEQ and Ribosomal RNA-SEQ (Ribo-SEQ) to measure the global transcriptional and translational response to AVX420 in CCRF-CEM cells. […] Translational effects were determined by calculating the proportion of total transcript associated with the ribosome (ribosomal occupancy (RO)). […] As a positive control we treated cells for 1 hour with the dual mTOR inhibitor Torin-1, which reduced the RO of 20 mRNAs.
CCRF-CEM cells seeded at 200,000 viable cells/mL were treated with AVX420 (0.5 μM) or DMSO (0.1%) and harvested after 1 hour, 6 h, or 16 h. Torin-1 (100 nM) treatment was harvested after 1 h. The flasks were placed on ice and the cell suspensions were transferred to 50 mL conical tubes for centrifugation (405 × g, 4 °C, 5 min). […] The cells were collected and centrifuged at 405 x g for 5 min at 4 °C. The supernatant was discarded, and the cells were suspended in 1 mL of DPBS before centrifugation at 405 x g for 5 min at 4 °C. Resulting cell pellets were snap-frozen in liquid nitrogen and stored at −80 °C. RNA-Seq and ribosome-associated RNA(Ribo)-Seq was performed by Eclipsebio (eclipsebio.com). Protocols are available in the Supplemental Methods section. […]
correction using the Benjamini-Hochberg correction to control the rate of false-posi-tives. Gene sets with false discovery rate <20% were considered significant. […]
RNA-Seq and ribosome-associated RNA(Ribo)-Seq
RNA-Seq and ribosome-associated RNA(Ribo)-Seq was performed by Eclipsebio (eclipsebio.com). The cytosolic fraction of crosslinked cell pellets was isolated and RNA quality and quantity was assessed before 250 ng of the isolated RNA was used to build 3’ RNA-Seq libraries. 10 µg RNA was used for immunoprecipitation (IP) for Ribo-SEQ analysis. Non-crosslinked RNA was removed from the IP through multiple wash steps and the remaining RNA was released via proteinase digestion. RNA from both sources was fragmented and libraries were generated from the poly(A) tails. Li-braries were sequenced on a NextSeq 2 000. After sequencing, samples were pro-cessed with Eclipsebio’s proprietary analysis pipeline (v1). Unique molecular identifi-ers (UMIs) were pruned from read sequences using umitools (v1.1.1). Next 3' adapt-ers were trimmed from reads using cutadapt (v3.2). Reads were then mapped to a cus-tom, curated database of repetitive elements and rRNA sequences. All non -repeat mapped reads were mapped to the genome hg38 using STAR (v2.7.7a) and PCR du-plicates were removed using umi_tools (v1.1.1). Gene coverage was cal culated using Eclipsebio’s proprietary feature counting algorithm and ribosome occupancy was cal-culated by dividing coverage in the ribosome -associated (IP) library by the RNA -Seq library. Differentially expressed and occupied genes were identified using D ESeq2.
Significant differential expression was defined using a cutoff on p.value < 0.01 (after multiple testing adjustment, "padj" metric) and requiring the fold change in gene cov-erage to be greater than 1 or less than -1 (log2 scale). Significance of the ribosomal occupancy (RO) difference was determined by extending DESeq2 models to include RO fold change as an interaction between the experimental condition and the library type. Genes with a RO log2 (fold change) > 1 or < -1 and an adjusted p-value < 0.01 were considered significant. […]

secreted GV sPLA2 = molecular target: T1, secreted GV sPLA2 (Homo sapiens, UniProt P39877); design: method as in PMID 25152071; details: 0.091 mole fraction; previously published data ref 19; cited from earlier work
T1 sequence (P39877 21-138): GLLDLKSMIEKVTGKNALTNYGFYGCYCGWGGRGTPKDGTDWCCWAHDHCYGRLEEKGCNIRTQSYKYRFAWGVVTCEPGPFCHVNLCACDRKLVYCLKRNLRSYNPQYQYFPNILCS

## CCCCCCCOc1ccc(OCC(=O)c2nc(C(=O)OC)cs2)cc1 [GK420]
CCRF-CEM cells; ADM2, 6 h
  log2(fold change): 1.49
CCRF-CEM cells; ATF3, 6 h
  log2(fold change): 1.05
CCRF-CEM cells; CCRF-CEM, 0.5 μM, 1 hour
  changes in gene expression: No significant changes
CCRF-CEM cells; CCRF-CEM, 0.5 μM, 6 h
  log2FC ADM2: 1.49
  log2FC ATF3: 1.05
  log2FC CHAC1: 2.25
  log2FC DDIT3: 1.15
  log2FC ENSG00000260498: 1.44
  log2FC GPT2: 1.24
  log2FC L3MBTL2-AS1: 2.13
  log2FC LINC-PINT: 1.34
  log2FC LY9: 1.05
  log2FC SESN2: 1.59
  log2FC SLC6A9: 1.25
  log2FC SLC7A11: 1.57
  log2FC ULBP1: 1.2
  log2FC VLDLR: 1.27
  log2FC VLDLR-AS1: 1.02
  log2FC YAP1: 1.04
  number of genes upregulated: 16
CCRF-CEM cells; CCRF-CEM, 0.5 μM, 16 h
  number of differentially expressed genes (DEGs): 82
CCRF-CEM cells; CCRF-CEM, 0.5 μM, 16 hours
  log2FoldChange ADM2: 2.31
  log2FoldChange AQP3: -1.1
  log2FoldChange B4GALNT1: 2.37
  log2FoldChange CAMKK1: -1.18
  log2FoldChange CAMKV: -1.07
  log2FoldChange CHAC1: 3.51
  log2FoldChange DUSP2: -1.04
  log2FoldChange ENSG00000260498: 2.28
  log2FoldChange GPT2: 3.48
  log2FoldChange HRG: 2.92
  log2FoldChange IFRD1: 2.08
  log2FoldChange L3MBTL2-AS1: 3.01
  log2FoldChange LINC02970: 3.49
  log2FoldChange LRRTM1: -1.11
  log2FoldChange MIR22HG: 2.58
  log2FoldChange MYT1: -1.13
  log2FoldChange NDUFA4L2: 2.19
  log2FoldChange NMRAL2P: 2.89
  log2FoldChange NOL3: 2.29
  log2FoldChange OSGIN1: 3.08
  log2FoldChange PNMA1: -1.02
  log2FoldChange RAG1: -1.12
  log2FoldChange RFPL1S: 2.61
  log2FoldChange RPL23AP42: -2.03
  log2FoldChange SESN2: 2.53
  log2FoldChange SLC6A9: 2.93
  log2FoldChange SLC7A11: 3.42
  log2FoldChange THOC3: -1.74
  log2FoldChange TM6SF1: 2.49
  log2FoldChange VLDLR-AS1: 2.44
CCRF-CEM cells; CHAC1, 6 h
  log2(fold change): 2.25
CCRF-CEM cells; DDIT3, 6 h
  log2(fold change): 1.15
CCRF-CEM cells; ENSG00000260498, 6 h
  log2(fold change): 1.44
CCRF-CEM cells; GPT2, 6 h
  log2(fold change): 1.24
CCRF-CEM cells; L3MBTL2-AS1, 6 h
  log2(fold change): 2.13
CCRF-CEM cells; LINC-PINT, 6 h
  log2(fold change): 1.34
CCRF-CEM cells; LY9, 6 h
  log2(fold change): 1.05
CCRF-CEM cells; SESN2, 6 h
  log2(fold change): 1.59
CCRF-CEM cells; SLC6A9, 6 h
  log2(fold change): 1.25
CCRF-CEM cells; SLC7A11, 6 h
  log2(fold change): 1.57
CCRF-CEM cells; ULBP1, 6 h
  log2(fold change): 1.2
CCRF-CEM cells; VLDLR, 6 h
  log2(fold change): 1.27
CCRF-CEM cells; VLDLR-AS1, 6 h
  log2(fold change): 1.02
CCRF-CEM cells; YAP1, 6 h
  log2(fold change): 1.04

## CCCCCCCCc1ccc(OCC(=O)c2nc(C(=O)OC)cs2)cc1 [GK470]
Secreted GV sPLA2
  GV sPLA2 % Inhib: 41%

Source: paper PMC11696576, “Next generation thiazolyl ketone inhibitors of cytosolic phospholipase A2 α for targeted cancer therapy” (Nature Communications, 2025)
